Our source for the maximum absorbance retained values is US10172946B2, “Monodisperse glycogen and phytoglycogen nanoparticles and use thereof as additives in cosmetics, pharmaceuticals, and food products” (Mirexus Biotechnologies Inc., priority 2013, dated 2019).

This data set in a line: Photostability of phytoglycogen-ethyl-4-aminocinnamate conjugate versus aminocinnamate. The format is physicochemical. The conditions noted are these: after 4 h of exposure to UV-irradiation, thin film. The method, then: Aminocinnamate and a phytoglycogen-ethyl-4-aminocinnamate conjugate were dissolved in ethanol or in water, respectively.
Solutions were deposited as thin films onto a quartz plate and dried in air for 30 min. After drying, the samples were irradiated with UV light, as in Example 11, for 4 h and then tested for their photostability.
Photodegradation was calculated from the decrease in the maximum absorption of the respective products.

Molecule `CCOC(=O)C=Cc1ccc(N)cc1` [aminocinnamate, ethyl 4-aminocinnamate] showed a maximum absorbance retained of 40%.
